# Results: US12564597B2 (priority 2020, dated 2026)
# Assays:
# [1] = Plasma pharmacokinetics and brain distribution in male Wistar rats after a single intraperitoneal dose
# Description: Formulation strengths for intraperitoneal administration was 4 mg/mL. A weighed quantity of compound was combined with an appropriate volume of vehicle (10% ethanol and 90% normal saline), the mixture was warmed to 55° C. and vortexed until a clear yellowish solution was obtained. The dosing volume administered was 10 mL/kg for intraperitoneal route.
# Healthy male Wistar rats (8-12 weeks old) weighing between 280 to 300 g were procured from Global, India. Three rats were housed in each cage. […] Temperature and humidity were recorded by auto-controlled data logger system. All the animals were provided laboratory rodent diet (Envigo Research private Ltd, Hyderabad). Reverse osmosis water treated with ultraviolet light was provided ad libitum.
# Blood samples (approximately 120 μL) were collected under light isoflurane anesthesia from retro orbital plexus from a set of three rats at specified time intervals. Samples were collected into labeled micro-tubes, containing K2EDTA solution (10 μL of 20% K2EDTA of solution per mL of blood) as an anticoagulant. Plasma was immediately harvested from the blood by centrifugation at 4000 rpm for 10 min at 4±2° C. and stored below −70±10° C. until bioanalysis.
# Immediately, after blood collection animals were euthanized with excess CO2 and brain was isolated at each time point. Brain was rinsed three times in ice cold PBS (for 5-10 seconds/rinse using ˜5-10 mL fresh PBS in disposable petri dish for each rinse) and dried on blotting paper. Brain samples were homogenized using ice-cold phosphate buffer saline (pH 7.4) and homogenates were stored below −70±10° C. until analysis. Total homogenate volume was three times the tissue weight.
# The extraction procedure for plasma and brain samples and the spiked plasma and brain calibration standards were identical: A 25 PL of study sample or spiked plasma and brain calibration standard was added to individual pre-labeled micro-centrifuge tubes followed by 100 PL of internal standard prepared in Acetonitrile (Glipizide, 500 ng/mL) was added except for blank, where 100 μL of Acetonitrile was added. Samples were vortexed for 5 minutes and then centrifuged for 10 minutes at a speed of 4000 rpm at 4° C. Following centrifugation, 100 μL of clear supernatant was transferred to a 96 well plate and analyzed using LC-MS/MS.
# Non-compartmental analysis tool of Phoenix WinNonlin® (Version 7.0) was used to assess the pharmacokinetic parameters. Peak plasma concentrations (Cmax) and time for the peak plasma concentrations (Tmax) were the observed values. The areas under the concentration time curve (AUClast and AUCinf) were calculated by linear trapezoidal rule. The terminal elimination rate constant, ke was determined by regression analysis of the linear terminal portion of the log plasma concentration-time curve.
# [2] = in vitro; settings: for Percentage turnover of test compounds (percent remaining): 10 μM, +NADPH
# Description: (§1) Metabolism Studies. Metabolic stability of test compounds was evaluated in liver microsomes from rat (RLM) and human (HLM). This was accomplished by incubating test compounds with microsomes and monitoring disappearance of parent compound as well as metabolite formation over time using LC-MS/MS in Multiple Reaction Monitoring mode (MRM).
# (§2) Stock solutions of test compounds were prepared in DMSO at a concentration of 10 mM.
# (§3) Total Incubation volume: 100 μL
# (§4) Compound concentration: 10 μM
# (§5) Protein Concentration: 0.5 mg/mL (0.25 mg/mL for positive controls)
# (§6) From the above mix, 70 PL was added to individual wells of 96 well reaction plates and pre-incubated at 37° C. for 5 min. […] Reactions without NADPH and buffer controls (minus NADPH) at 0 min and 60 min were also incubated to rule out non-NADPH metabolism or chemical instability in the incubation buffer. All reactions were terminated using 100 μL of ice-cold acetonitrile containing internal standard (glipizide) at 0, 5, 15, 30 and 60 min.
# (§7) Stock solution of noribogaine was prepared in DMSO at a concentration of 20 mM and serially diluted in DMSO to prepare 10, 3, 1, 0.3, 0.1 and 0.03 mM solutions respectively.
# (§8) Samples were monitored for parent compounds disappearance and formation of metabolite in MRM mode using LC-MS/MS instrument (API-4000 with Waters UPLC).
# (§9) The percent remaining of test compounds and positive control in each sample was determined by considering peak area ratio in the 0 minute sample as 100%.
# (§10) In vitro intrinsic clearance (CL′int) (units in mL/min/kg) was calculated using the formula: […]
# (§11) For human, monkey, dog, rat and mouse the liver weight are 20 gm, 32 gm, 32 gm, 40 gm and 90 gm respectively.
# [3] = Buffer control for chemical instability in the incubation buffer; type: physicochemical; settings: Kphos buffer pH 7.4, 37° C., no microsomes, minus NADPH
# [4] = Metabolic stability and noribogaine formation in rat liver microsomes (RLM); settings: for Percentage turnover of test compounds (percent remaining): 10 μM, +NADPH
# Description: as §1, §2, §3, §4, §5, §6, §7, §8, §9, §10, §11
# [5] = 0.08 h after CD3O-ibogamine 40 mg/kg i.p.
# [6] = 0.5 h after CD3O-ibogamine 40 mg/kg i.p.
# [7] = 1 h after CD3O-ibogamine 40 mg/kg i.p.
# [8] = 2 h after CD3O-ibogamine 40 mg/kg i.p.
# [9] = 3 h after CD3O-ibogamine 40 mg/kg i.p.
# [10] = male, Wistar, rat, in vivo, ip, 40 mg/kg, brain, analyte after CD3O-ibogamine 40 mg/kg i.p.
# [11] = male, Wistar, rat, in vivo, ip, 40 mg/kg, plasma, analyte after CD3O-ibogamine 40 mg/kg i.p.
smiles,measurement,setting,value
[2H]C([2H])([2H])Oc1ccc2[nH]c3c(c2c1)CCN1C[C@H]2C[C@H](CC)C1[C@H]3C2 [CD3O-ibogamine],Mean brain concentration,[1]; [5],11340 ng/g
same,Mean plasma concentration,[1]; [5],1229 ng/mL
same,Mean brain concentration,[1]; [6],6647 ng/g
same,Mean plasma concentration,[1]; [6],698 ng/mL
same,Mean brain concentration,[1]; [7],5363 ng/g
same,Mean plasma concentration,[1]; [7],620 ng/mL
same,Mean brain concentration,[1]; [8],3941 ng/g
same,Mean plasma concentration,[1]; [8],343 ng/mL
same,Mean brain concentration,[1]; [9],4684 ng/g
same,Mean plasma concentration,[1]; [9],473 ng/mL
same,AUClast,"[1]; brain, analyte after CD3O-ibogamine 40 mg/kg i.p.",16357.31 ng·h/g
same,AUC(0-t),"[1]; male, Wistar, rat, in vivo, ip, 40 mg/kg, AUClast, plasma, analyte after CD3O-ibogamine 40 mg/kg i.p.",1700 ng·h/mL
same,Cmax,[1]; [10],11300 ng/g
same,Cmax,[1]; [11],1230 ng/mL
same,Tmax,[1]; [10],4.8 min
same,Tmax,[1]; [11],4.8 min
same,difference of plasma concentration versus ibogaine (lower for CD3O-ibogamine),[1]; single i.p. dose 40 mg/kg,approximately 25%
same,maximum brain concentration as percent of the ibogaine concentration detected after its administration,[1]; single i.p. dose 40 mg/kg,~43%
same,"CLh, int",[2]; HLM,42 mL/min/kg
same,"metabolic degradation, times faster compared to that of ibogaine",[2]; HLM,more than 2 ×
same,Percentage turnover of test compounds (percent remaining),"[2]; HLM, 0 min",100%
same,Percentage turnover of test compounds (percent remaining),"[2]; HLM, 5 min",98%
same,Percentage turnover of test compounds (percent remaining),"[2]; HLM, 15 min",83%
same,Percentage turnover of test compounds (percent remaining),"[2]; HLM, 30 min",67%
same,Percentage turnover of test compounds (percent remaining),"[2]; HLM, 60 min",25%
same,% Remaining at 60 min (+NADPH),"[2]; HLM, summary",25%
same,% Remaining at 60 min (−NADPH),"[2]; HLM, without NADPH",105%
same,half-life,"[2]; human, microsomes, pH 7.4",30 min
same,% Remaining at 60 min (Buffer),[3],90%
same,"CLh, int",[4]; RLM,742 mL/min/kg
same,t1/2,[4]; RLM,<5 min
same,Percentage turnover of test compounds (percent remaining),"[4]; RLM, 0 min",100%
same,Percentage turnover of test compounds (percent remaining),"[4]; RLM, 5 min",36%
same,Percentage turnover of test compounds (percent remaining),"[4]; RLM, 15 min",0%
same,Percentage turnover of test compounds (percent remaining),"[4]; RLM, 30 min",1%
same,Percentage turnover of test compounds (percent remaining),"[4]; RLM, 60 min",0%
same,% Remaining at 60 min (+NADPH),"[4]; RLM, summary",0%
same,% Remaining at 60 min (−NADPH),"[4]; RLM, without NADPH",105%
same,metabolism compared to ibogaine in the in vitro study,[4]; in vitro microsome study,metabolized faster than ibogaine
same,half-life at 10 μM,"[4]; male, rat, microsomes, pH 7.4",< 5 min
same,total amount of noribogaine produced compared to ibogaine,[4]; short incubation period (~5 min),comparable
